Test results taken from article PMC9571093, “Synthesis and Characterization of Novel Hydrazone Derivatives of Isonicotinic Hydrazide and Their Evaluation for Antibacterial and Cytotoxic Potential” (Molecules, 2022).
In brackets after ≈: the same amount, converted by molar mass.

Columns and labels:
Type in all cases: cell-based
[1] = tested on: Escherichia coli ATCC 10536; experiment: Paper disc diffusion, zone of inhibition; settings: ATCC10536, disc with 1000 µg mL−1 in DMSO, 37 °C, 24 h
Procedure: (§1) All the synthesized compounds were screened for antibacterial activities using minimum inhibitory concentrations (MIC) and zone of inhibitions against Gram (+)and Gram (−) bacterial strains. ATCC strains of the test microorganism selected for antibacterial assay were Gram-positive bacteria; Staphylococcus aureus ATCC 25923, Bacillus subtilus ATCC 11774, and Gram-negative bacteria; Escherichia coli ATCC 10536. The bacterial strains’ stock cultures were kept in Nutrient agar (Oxoid, UK) at 4 °C and inocula were prepared by transferring several single colonies of microbes to a sterile Mueller Hinton broth. The bacterial cell suspension was mixed until homogeneity to give a final density of 5 × 10^5 cfu/mL
(§2) Preliminary screenings of synthesized compounds were conducted on agar plates using the disc diffusion method. The plates were prepared using Mueller–Hinton agar following the autoclave process (121 °C for 30 min). After cooling, the plates were inoculated with the suspension of microorganisms (S. aureus, B. subtilis and E. coli). The paper discs impregnated with the test compounds (1000 µg mL^−1 in dimethyl sulfoxide) were placed on the solidified medium and incubated at 37 °C for 24 hours before recording the zone of inhibition in millimeters.

[2] = tested on: Bacillus subtilis ATCC 11774; experiment: Paper disc diffusion, zone of inhibition; settings: Bacillus subtilis, ATCC11774, 24 h, disc with 1000 µg mL−1 in DMSO, 37 °C
Procedure: as §1, §2

[3] = tested on: Staphylococcus aureus ATCC 25923; experiment: Paper disc diffusion, zone of inhibition; settings: disc with 1000 µg mL−1 in DMSO, 37 °C; for zone of inhibition at 1000 µg/mL: Staphylococcus aureus, ATCC25923, 24 h
Procedure: as §1, §2

E. coli ATCC 10536 = experiment: Tetrazolium (MTT) microplate assay of minimum inhibitory concentration; settings: Escherichia coli, ATCC10536
Procedure: as §1
(§3) The minimum inhibitory concentrations of test microorganisms and reference material were determined using the tetrazolium microplate assay method. The assay was performed using a 96-well clear microtiter plate. Freshly harvested bacterial cell and fungal cell suspensions were seeded at 5 × 10^5 cfu/mL in each well of the 96-well plate. Different concentrations, 500 to 10 µg/mL, of the test compounds were diluted in series with Muller–Hinton broth. A volume of 200 µL of each concentration was added in triplicate to the wells and the plates were then incubated for 18–24 h at 37 °C ± 0.5. After incubation, in each well, 50 µL of 3-(4, 5-dimethylthiazol-2-yl)-2, 5-diphenyltetrazolium bromide MTT, having a concentration of 0.2 mg/mL, was added and the plate was incubated at 37 °C for 30 min. An appropriate solvent blank (DMSO) was included as the negative control and the bacterial suspension was included as the positive control. The absorbance was measured at 570 nm with a reference wavelength of 650 nm by adding DMSO using a spectrophotometer and the percentage reduction of the dye (indicating the bacterial growth inhibition) was calculated.

S. aureus ATCC 25923 = experiment: as above; settings: Staphylococcus aureus, ATCC25923
Procedure: as §1, §3

B. subtilis ATCC 11774 = experiment: as above; settings: Bacillus subtilis, ATCC11774
Procedure: as §1, §3

Work on `NCC[C@H](O)C(=O)N[C@@H]1C[C@H](N)[C@@H](O[C@H]2O[C@H](CN)[C@@H](O)[C@H](O)[C@H]2O)[C@H](O)[C@H]1O[C@H]1O[C@H](CO)[C@@H](O)[C@H](N)[C@H]1O` [Amikacin, reference compound] yielded a zone of inhibition at 1000 µg/mL [1] of 38 mm, a zone of inhibition at 1000 µg/mL [2] of 30 mm and a zone of inhibition at 1000 µg/mL [3] of 24 mm.

`CC1(C)S[C@@H]2[C@H](NC(=O)[C@H](N)c3ccc(O)cc3)C(=O)N2[C@H]1C(=O)O` [Amoxicillin, reference compound] was tested, and the inhibition at 25 µg/mL (E. coli ATCC 10536) was 40 ± 0.5%, the inhibition at 50 µg/mL (E. coli ATCC 10536) was 66 ± 0.5% and the inhibition at 100 µg/mL (E. coli ATCC 10536) was 85 ± 0.6%. It also gave an inhibition at 200 µg/mL (E. coli ATCC 10536) of 96 ± 1% and an IC50 (E. coli ATCC 10536; E. coli, concentration inhibiting 66 ± 0.5%) of 50 µg/mL (≈ 137 µM).

Compound `CO/N=C(\C(=O)N[C@@H]1C(=O)N2C(C(=O)O)=C(CSc3nc(=O)c(=O)[nH]n3C)CS[C@H]12)c1csc(N)n1` [Ceftriaxone, reference compound] has an inhibition at 25 µg/mL (S. aureus ATCC 25923; 25 µg/mL) of 30 ± 0.8%, an inhibition at 50 µg/mL (S. aureus ATCC 25923) of 55 ± 0.3% and an inhibition at 100 µg/mL (S. aureus ATCC 25923) of 80 ± 1.2%. For the same compound, the inhibition at 200 µg/mL (S. aureus ATCC 25923) was 96 ± 1%, the minimum inhibitory concentration (S. aureus ATCC 25923; S. aureus, concentration inhibiting 55 ± 0.3%, read-out: IC50) was 50 µg/mL (≈ 90.2 µM) and the inhibition at 25 µg/mL (B. subtilis ATCC 11774; 25 µg/mL) was 40 ± 0.5%. The inhibition at 50 µg/mL (B. subtilis ATCC 11774) was 55 ± 0.7%, the inhibition at 100 µg/mL (B. subtilis ATCC 11774) was 79 ± 1.2% and the inhibition at 200 µg/mL (B. subtilis ATCC 11774) was 92 ± 1.2%. It also gave an IC50 (B. subtilis ATCC 11774; B. subtilis, concentration inhibiting 55 ± 0.7%) of 50 µg/mL (≈ 90.2 µM).

`COc1cc(/C=N/NC(=O)c2ccncc2)ccc1OCC(=O)OC(C)(C)C` [NH1, Tert-butyl (E)-2-(4-((2-Isonicotinoylhydrazineylidene)methyl)-2-methoxyphenoxy) Acetate] gave a zone of inhibition at 1000 µg/mL [1] of 25 mm, a zone of inhibition at 1000 µg/mL [2] of 14 mm and a zone of inhibition at 1000 µg/mL [3] of 24 mm. The “Zone of Inhibition” value ([3]; 24 h) was 20 mm, the inhibition at 25 µg/mL (E. coli ATCC 10536) was 9 ± 0.5% and the inhibition at 50 µg/mL (E. coli ATCC 10536) was 18 ± 0.5%. It also gave an inhibition at 100 µg/mL (E. coli ATCC 10536) of 40 ± 0.4%, an inhibition at 200 µg/mL (E. coli ATCC 10536) of 60 ± 0.5% and an inhibition at 300 µg/mL (E. coli ATCC 10536; 300 µg/mL) of 79 ± 1%. It also gave an inhibition at 50 µg/mL (S. aureus ATCC 25923) of 10 ± 0.6%, an inhibition at 100 µg/mL (S. aureus ATCC 25923) of 25 ± 0.7% and an inhibition at 200 µg/mL (S. aureus ATCC 25923) of 55 ± 1%. It also gave an inhibition at 300 µg/mL (S. aureus ATCC 25923; 300 µg/mL) of 63 ± 1%, an inhibition at 400 µg/mL (S. aureus ATCC 25923; 400 µg/mL) of 69 ± 2% and an inhibition at 500 µg/mL (S. aureus ATCC 25923; 500 µg/mL) of 80 ± 1.5%. It also gave an inhibition at 50 µg/mL (B. subtilis ATCC 11774) of 5 ± 0.3%, an inhibition at 100 µg/mL (B. subtilis ATCC 11774) of 26 ± 0.3% and an inhibition at 200 µg/mL (B. subtilis ATCC 11774) of 44 ± 0.4%. It also gave an inhibition at 300 µg/mL (B. subtilis ATCC 11774; 300 µg/mL) of 60 ± 0.5% and an inhibition at 400 µg/mL (B. subtilis ATCC 11774; 400 µg/mL) of 75 ± 0.5%.
